According to patent publication US20240158446A1, “CYCLIC COMPOUND HAVING SELECTIVE INHIBITORY ACTION ON KRAS OVER HRAS AND NRAS” (CHUGAI SEIYAKU KABUSHIKI KAISHA, priority 2021, published 2024):
Like-named read-outs stand apart in the source and are kept apart here. Where a SMILES comes first, the peptide text is derived from it. Bridges are numbered along the chain shown (N, C = ends). [ ]: non-standard residue; d: D form. The star is where a group is joined. hPhe(3-Cl-4-CF3) = N[C@@H](CCc1ccc(C(F)(F)F)c(Cl)c1)C(=O)O; NPrPhe(4-CF3) = CCCN[C@@H](Cc1ccc(C(F)(F)F)cc1)C(=O)O; NMeGly(cPent) = CN[C@H](C(=O)O)C1CCCC1; NMeD = CN[C@@H](CC(=O)O)C(=O)O; NMeL = CN[C@@H](CC(C)C)C(=O)O; Morpholide = C1CN(*)CCO1; NMeA = CN[C@@H](C)C(=O)O; Aze = O=C(O)[C@@H]1CCN1; Ac3c = NC1(C(=O)O)CC1; Sar = CNCC(=O)O

Legend:
[1] = biological target: GDP-bound NRAS wild-type protein (Homo sapiens, UniProt P01111); test: Binding to NRAS by surface plasmon resonance (SPR), Single Cycle Kinetics; conditions: for NRAS/KRAS (ratio of KD value for NRAS to KD value for KRAS) / NRAS/KRAS (ratio of KD value with respect to NRAS to KD value with respect to KRAS): SPR, GDP-bound NRAS wild-type protein vs GDP-bound KRAS wild-type protein
[2] = biological target: GDP-bound HRAS wild-type protein (Homo sapiens, UniProt P01112); test: Binding to HRAS by surface plasmon resonance (SPR), Single Cycle Kinetics; conditions: for HRAS/KRAS (ratio of KD value for HRAS to KD value for KRAS) / HRAS/KRAS (ratio of KD value with respect to HRAS to KD value with respect to KRAS): SPR, GDP-bound HRAS wild-type protein vs GDP-bound KRAS wild-type protein
[3] = biological target: GDP-bound KRAS wild-type protein (Homo sapiens, UniProt P01116); test: Binding to KRAS by surface plasmon resonance (SPR), Single Cycle Kinetics; conditions: GDP-bound KRAS wild-type protein, read-out: KRAS KD
[4] = SPR Single Cycle Kinetics, 1:1 binding model

Chain of GDP-bound NRAS wild-type protein (P01111 whole entry): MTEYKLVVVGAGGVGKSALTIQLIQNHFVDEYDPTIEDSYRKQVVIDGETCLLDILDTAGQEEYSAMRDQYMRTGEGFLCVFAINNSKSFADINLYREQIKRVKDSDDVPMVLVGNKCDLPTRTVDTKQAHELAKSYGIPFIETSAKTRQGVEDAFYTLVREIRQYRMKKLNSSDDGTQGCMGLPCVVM
Chain of GDP-bound KRAS wild-type protein (P01116 whole entry): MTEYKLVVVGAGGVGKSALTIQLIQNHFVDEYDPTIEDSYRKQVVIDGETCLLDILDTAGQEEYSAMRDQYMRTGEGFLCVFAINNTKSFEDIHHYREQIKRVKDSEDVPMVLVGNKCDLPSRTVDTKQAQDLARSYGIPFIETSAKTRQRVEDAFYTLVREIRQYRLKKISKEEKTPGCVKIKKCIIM
Chain of GDP-bound HRAS wild-type protein (P01112 whole entry): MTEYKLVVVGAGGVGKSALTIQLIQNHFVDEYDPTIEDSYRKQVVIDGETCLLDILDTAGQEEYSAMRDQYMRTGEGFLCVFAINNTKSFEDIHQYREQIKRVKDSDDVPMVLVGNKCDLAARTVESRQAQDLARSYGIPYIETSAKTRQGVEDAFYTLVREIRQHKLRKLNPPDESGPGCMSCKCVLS

Row | SMILES | Kd ([3]; SPR, Single Cycle Kinetics) | Kd [3, 4] | NRAS/KRAS (ratio of KD value for NRAS to KD value for KRAS) [1] | HRAS/KRAS (ratio of KD value for HRAS to KD value for KRAS) [2] | NRAS/KRAS (ratio of KD value with respect to NRAS to KD value with respect to KRAS) [1] | HRAS/KRAS (ratio of KD value with respect to HRAS to KD value with respect to KRAS) [2] | NRAS/KRAS (ratio of KD value with respect to GDP-bound NRAS wild-type protein to KD value with respect to KRAS) ([1]; SPR KD ratio NRAS/KRAS, class symbols) | HRAS/KRAS (ratio of KD value with respect to GDP-bound HRAS wild-type protein to KD value with respect to KRAS) ([2]; SPR KD ratio HRAS/KRAS, class symbols)
1 | CCCCO[C@@H]1C[C@H]2C(=O)NC3(CCC3)C(=O)N(C)[C@@H](C3CCCC3)C(=O)N(C)[C@H](C(=O)N3CCOCC3)CC(=O)N(C)[C@@H](CC(C)C)C(=O)N[C@@H]([C@@H](C)CC)C(=O)N(C)CC(=O)N(C)[C@H]3CCCCN(C3=O)[C@@H](Cc3ccc(C(F)(F)F)cc3)C(=O)N(C)CC(=O)N[C@@H](CCc3cc(F)c(C(F)(F)F)c(F)c3)C(=O)N2C1 [PP0999] | 0.11 nM |  | C (A compound having a KD ratio of 0.1 or more and less than 3 is denoted as C) | B (a compound having 3 or more and less than 10 is denoted as B) |  |  |  | 
2 | CC[C@H](C)[C@@H]1NC(=O)[C@H](CC)N(C)C(=O)C[C@@H](C(=O)N(C)C)N(CC)C(=O)[C@H](C2CCCC2)N(C)C(=O)C2(CCC2)NC(=O)[C@@H]2C[C@@H](N3CCC(F)(F)CC3)CN2C(=O)[C@H](CCc2cc(F)c(C(F)(F)F)c(F)c2)NC(=O)CN(C)C(=O)[C@H](Cc2ccc(C(F)(F)F)cc2)N2CCCC[C@@H](C2=O)N(C)C(=O)CN(C)C1=O [PP0733] |  | 0.77 nM |  |  | B (a compound having 3 or more and less than 10 is denoted as B) | B (a compound having 3 or more and less than 10 is denoted as B) |  | 
3 | CCCN1C(=O)[C@@H]2CCN2C(=O)[C@H](C)N(C)C(=O)[C@H]([C@@H](C)CC)NC(=O)[C@H](CC(C)C)N(C)C(=O)C[C@@H](C(=O)N2CCOCC2)N(C)C(=O)[C@H](C2CCCC2)N(C)C(=O)C2(CC2)NC(=O)[C@@H]2CCCN2C(=O)[C@H](CCc2ccc(C(F)(F)F)c(Cl)c2)NC(=O)CN(C)C(=O)[C@@H]1Cc1ccc(C(F)(F)F)cc1 [PP0224] ([NMeL]I[NMeA][Aze][NPrPhe(4-CF3)][Sar][hPhe(3-Cl-4-CF3)]P[Ac3c][NMeGly(cPent)][NMeD]-Morpholide; lactam N-11) |  | 0.22 nM | C (A compound having a KD ratio of 0.1 or more and less than 3 is denoted as C) | B (a compound having 3 or more and less than 10 is denoted as B) |  |  |  | 
4 | CC[C@H](C)[C@@H]1NC(=O)[C@H](CC(C)C)N(C)C(=O)C[C@@H](C(=O)N2CCOCC2)N(C)C(=O)[C@H](C2CCCC2)N(C)C(=O)C2(CCCC2)NC(=O)[C@@H]2CCCN2C(=O)[C@H](CCc2ccc(C(F)(F)F)c(Cl)c2)NC(=O)CN(C)C(=O)[C@H](Cc2ccc(OC(F)(F)F)cc2)N2CC=CC[C@@H](C2=O)N(C)C(=O)CN(C)C1=O [PP0537] |  | 5.8 nM |  |  | C (A compound having a KD ratio of 0.1 or more and less than 3 is denoted as C) | C (A compound having a KD ratio of 0.1 or more and less than 3 is denoted as C) |  | 

Second part, led by results:

Row | Kd ([3]; SPR, Single Cycle Kinetics) | Kd [3, 4] | SMILES | NRAS/KRAS (ratio of KD value for NRAS to KD value for KRAS) [1] | HRAS/KRAS (ratio of KD value for HRAS to KD value for KRAS) [2] | NRAS/KRAS (ratio of KD value with respect to NRAS to KD value with respect to KRAS) [1] | HRAS/KRAS (ratio of KD value with respect to HRAS to KD value with respect to KRAS) [2] | NRAS/KRAS (ratio of KD value with respect to GDP-bound NRAS wild-type protein to KD value with respect to KRAS) ([1]; SPR KD ratio NRAS/KRAS, class symbols) | HRAS/KRAS (ratio of KD value with respect to GDP-bound HRAS wild-type protein to KD value with respect to KRAS) ([2]; SPR KD ratio HRAS/KRAS, class symbols)
5 | 0.46 nM |  | CC[C@H](C)[C@@H]1NC(=O)[C@H](CC)N(C)C(=O)C[C@@H](C)N(C)C(=O)[C@H](C2CCCC2)N(C)C(=O)C2(CCCC2)NC(=O)[C@@H]2CCCN2C(=O)[C@H](CCc2cc(F)c(C(F)(F)F)c(F)c2)NC(=O)CN(C)C(=O)[C@H](Cc2ccc(C(F)(F)F)cc2)N2CC/C=C\C[C@@H](C2=O)N(C)C(=O)CN(C)C1=O [PP1101] | B (a compound having 3 or more and less than 10 is denoted as B) | B (a compound having 3 or more and less than 10 is denoted as B) |  |  |  | 
6 | 0.41 nM |  | CCO[C@@H]1C[C@H]2C(=O)NC3(CC(C)(C)C3)C(=O)N(C)[C@@H](C(CC)CC)C(=O)N(C)[C@H](C(=O)N(C)C)CC(=O)N(C)[C@@H](CC3CCC3)C(=O)N[C@@H]([C@@H](C)CC)C(=O)N(C)CC(=O)N(C)[C@H]3C/C=C\CCN(C3=O)[C@@H](Cc3ccc(C)cc3)C(=O)N(C)CC(=O)N[C@@H](CCc3ccc(C(F)(F)F)c(Cl)c3)C(=O)N2C1 [PP2156] | AA (a compound having 20 or more is denoted as AA) | A (a compound having 10 or more and less than 20 is denoted as A) |  |  |  | 
7 |  | 0.17 nM | CCCN(C)C(=O)[C@@H]1CC(=O)N(C)[C@@H](CC)C(=O)N[C@@H]([C@@H](C)CC)C(=O)N(C)CC(=O)N(C)[C@H]2C/C=C\CCN(C2=O)[C@@H](Cc2ccc(C(F)(F)F)cc2)C(=O)N(C)CC(=O)N[C@@H](CCc2cc(F)c(C(F)(F)F)c(F)c2)C(=O)N2C[C@H](OCC3CC3)C[C@H]2C(=O)NC2(CCC2)C(=O)N(C)[C@@H](C2CCCC2)C(=O)N1C [PP2913] |  |  |  |  | A (a compound having 10 or more and less than 20 is denoted as A) | A (a compound having 10 or more and less than 20 is denoted as A)
